The values that follow come from patent publication US12441775B2, “BCL-W polypeptides and mimetics for treating or preventing chemotherapy-induced peripheral neuropathy and hearing loss” (Dana-Farber Cancer Institute, Inc., priority 2016, dated 2025).

In series [1] the test system is bclw+/+ and bclw−/− mice. Briefly: Noxious thermal sensation threshold, 50° C. hot-plate. Type of series: in vivo, mouse. The settings on record: paclitaxel 4 mg/kg every other day for 8 days. As for the experimental part:
(§1) Paclitaxel treatment and behavioral testing. 2 month old age-matched bclw−/− and bclw+/+ mice (17-30 g) of either sex were injected intraperitoneally (IP) with 4 mg/kg paclitaxel (Bristol-Myers Squibb) every other day for 8 days (4 total injections). Paclitaxel was prepared as 1 part 6 mg/ml paclitaxel stock solution diluted in vehicle (1:1 v/v Cremophor EL [EMD Millipore] and dehydrated ethanol) and 2 parts sterile saline and injected at 10 μl/g. Control mice were injected with 1 part vehicle and 2 parts saline. […] For three days prior to the baseline testing, mice were weighed, trained on an automated RotaRod apparatus (4 rpm for 1 min without falling), and habituated in von Frey cages. The next two days, baseline behavioral performance was assessed and averaged. The first paclitaxel injection was given three days later, and mice were weighed and behaviorally tested 10 days after the final injection. To assay motor function, mice were placed on the RotaRod with a ramp of 4-40 rpm and 0.4 rpm/sec acceleration, and latency to fall was measured. […] Withdrawal threshold was determined to be the applied force at which the animal withdrew the stimulated paw on at least 2 of 10 applications. […] Mouse behavior was assessed by an experimenter blind to genotype and condition.

For series [2], the system named is calpain. Briefly: Calpain protease activity luminescence assay. Type of series: cell-based, rat. The settings on record: DRG neurons treated 48 hours with paclitaxel, normalized to DMSO.
Procedure: Calpain protease activity luminescence assay. DRG neurons in mass cultures were treated with vehicle (0.1% DMSO for 48h), paclitaxel (30 nM, 600 nM, or 1.2 μM for 48 hours), or calcium chloride (3 mM for 24 hours). Cultures were harvested in 1× Passive Lysis Buffer (Promega). The resulting lysate was spun 10,000×g for 5 min at 4° C., and 50 μL supernatant was combined with 50 μL Calpain-Glo Reagent (Promega) in a 96 well plate. The plate was shaken briefly and incubated for 40 min in the dark; luminescence intensity was measured with a microplate reader and normalized to protein concentration.
Series [3] deals with mice. Briefly: Epidermal footpad innervation (Tuj1-positive intraepidermal nerve fibers). Type of series: in vivo, mouse. Here is the method: as §1
Epidermal footpad innervation. […] Images were acquired and quantified in NIH ImageJ by an experimenter blind to condition.

The subject of series [4] is Bcl2. The experiment in a line: qRT-PCR and Western blot of cell body and axon lysate after paclitaxel. The class given is cell-based, rat. As to conditions: 24 hours paclitaxel to axons; axons or cell bodies. As for the experimental part:
(§2) Cell culture. Compartmented chamber (Campenot) cultures were prepared as described (see, e.g., Fenstermacher et al., Springer Protocols: Neuromethods, 103:105-124 (2015)), with modifications. Briefly, DRGs from embryonic day 15 (E15) rats of either sex were dissected and trypsinized. DRGs (1.2×10^5 cells) were plated in the center compartment of a Teflon divider (Camp10, Tyler Research; Campenot, 1982) affixed to a p35 culture dish coated with growth factor reduced Matrigel basement membrane (BD Biosciences) 1:45 in DMEM. Cultures were maintained in media consisting of Neurobasal (Invitrogen) with 2% B27 supplement (Invitrogen), 1% penicillin-streptomycin, 1% GlutaMAX (Life Technologies), 0.08% glucose, and 0.3 μM cytosine arabinoside (AraC) at 37° C., 7.5% CO2; BDNF+NGF (PeproTech) were added to the cell body compartment at a concentration of 10 ng/ml and to the axon compartment at a concentration of 100 ng/ml for 2d. On day 3, media was replaced and the AraC was omitted. On day 5, neurotrophins were removed from the cell body compartment and reduced to 1 ng/ml in the axon compartments for 3-5 days. For paclitaxel treatment experiments, 30 μM paclitaxel (Sigma-Aldrich) or vehicle control (0.1% DMSO) was added to either cell body or distal axon compartments on day 7 for 24 hours. For calpain inhibition experiments, 20 μM calpain inhibitor III (VWR) and paclitaxel were added simultaneously to distal axon compartment.
(§3) Western blotting. […] Using NIH ImageJ software, protein levels were quantified and levels of protein were normalized to GAPDH.
(§4) Quantitative reverse transcription-PCR. […] Quantitative real-time RT-PCR was performed using Taqman Gene expression assays (Applied Biosystems) to assess the expression of bclw (Rn00821025_g1), bcl2 (Rn99999125_m1), and bclxL (Rn00580568_g1). […]

Series [5] concerns BclxL. Described as above. As to conditions: 24 hours paclitaxel to axons; axons or cell bodies. The class given is cell-based, rat. Here is the method:
as §2, §3, §4

For series [6], the system named is Bclw. Described as above. Type of series: cell-based, rat. The settings on record: 24 hours paclitaxel to axons; axons vs cell bodies. As for the experimental part: as §2, §3, §4
Series [7] concerns E15 DRG sensory neurons. Briefly: Apoptosis analysis (condensed/total nuclei) in cell body compartment. The class given is cell-based, rat. The settings on record: paclitaxel to either subcellular compartment. Here is the method: as §2, with “For paclitaxel treatment experiments, 30 μM paclitaxel (Sigma-Aldrich) or vehicle control (0.1% DMSO) was added to either cell body or distal axon compartments on day 7 for 24 hours. For calpain inhibition experiments, 20 μM calpain inhibitor III (VWR) and paclitaxel were added simultaneously to distal axon compartment.” left out
Axonal degeneration assay. […] Images of distal axon tips were obtained using a 40× air objective, and axonal degeneration was quantified as a degeneration index, as previously described (Cosker et al., Neuroscience, 33:5195-5207 (2013)). […]

Molecules are shown by their SMILES.

Turning to `CC(=O)O[C@H]1C(=O)[C@@]2(C)[C@H]([C@H](OC(=O)c3ccccc3)[C@]3(O)C[C@H](OC(=O)[C@H](O)[C@@H](NC(=O)c4ccccc4)c4ccccc4)C(C)=C1C3(C)C)[C@]1(OC(C)=O)CO[C@@H]1C[C@@H]2O` [paclitaxel], the “thermal pain sensitivity (hot-plate)” value in series [1] (bclw+/+ mice) is “mild thermal hyperalgesia”; in series [1] (bclw−/− mice), “more severe thermal pain sensitivity”. Besides, the “calpain activity (luminescence)” value in series [2] is “increased calpain activity in a dose-dependent manner”. Besides, the “intraepidermal nerve fiber number of the hindpaw” value in series [3] (bclw−/− compared to bclw+/+ mice, thick and thin skin) is on record as “greater reduction in intraepidermal nerve fiber number”. Further, the “thick skin epidermal innervation” value in series [3] (paclitaxel-treated compared with control mice (Example 12)) was “decreased thick skin epidermal innervation”. Further, in series [4], the “Bcl2 mRNA or protein” value is “did not alter”. The “BclxL mRNA or protein” value in series [5] is recorded as “did not alter”. In addition, in series [6], the “Bclw mRNA and protein levels” value was “reduced Bclw mRNA and protein levels selectively in axons and not in cell bodies”. In addition, in series [7], the “cell body apoptosis assessed by nuclear condensation” value is listed as “did not induce cell body apoptosis”.
